Test results published in the supplement of paper PMC10307832.

Legend:
Assay in all cases: relative viability (nuclei count vs DMSO), 5 days (fraction); higher = more cells survive
[1] = compound: C[C@]1(O)C[C@@H](c2nc(-c3ccc4ccc(-c5ccccc5)nc4c3)c3c(N)nccn32)C1 [Linsitinib] + CC(C)C[C@H](NC(=O)[C@H](Cc1ccccc1)NC(=O)c1cnccn1)B(O)O [Bortezomib] (partner 0.002 µM)
Summary of the method: (§1)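 Relative viability is defined as nuclei in treated wells over nuclei in vehicle wells. Duplicate plates were run and medians reported. Lung cancer cell lines in 1536-well plates were dosed by pin tool one day after seeding, with one drug or with a fixed anchor-drug dose plus five library-drug doses (not always all listed) in √10 steps, and nuclei were counted after 5 days.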

[2] = compound: Cc1ccc(C(=O)N(CCCN)[C@@H](c2nc3cc(Cl)ccc3c(=O)n2Cc2ccccc2)C(C)C)cc1 [Ispinesib] + C[C@]1(O)C[C@@H](c2nc(-c3ccc4ccc(-c5ccccc5)nc4c3)c3c(N)nccn32)C1 [Linsitinib] (partner 1 µM)
Summary of the method: as §1

[3] = compound: C[C@]1(O)C[C@@H](c2nc(-c3ccc4ccc(-c5ccccc5)nc4c3)c3c(N)nccn32)C1 [Linsitinib] + CC1(C)CCC(c2ccc(Cl)cc2)=C(CN2CCN(c3ccc(C(=O)NS(=O)(=O)c4ccc(N[C@H](CCN5CCOCC5)CSc5ccccc5)c(S(=O)(=O)C(F)(F)F)c4)cc3)CC2)C1 [Navitoclax] (partner 0.5 µM)
Summary of the method: as §1

[4] = compound: C[C@]1(O)C[C@@H](c2nc(-c3ccc4ccc(-c5ccccc5)nc4c3)c3c(N)nccn32)C1 [Linsitinib] + Cc1cc(Nc2cc(N3CCN(C)CC3)nc(Sc3ccc(NC(=O)C4CC4)cc3)n2)n[nH]1 [Tozasertib] (partner 0.1 µM)
Summary of the method: as §1

Cell Line	relative viability ([1]; first compound 0.01 µM)	relative viability ([1]; first compound 0.03162 µM)	relative viability ([1]; first compound 0.1 µM)	relative viability ([1]; first compound 1 µM)	relative viability ([2]; first compound 0.001 µM)	relative viability ([2]; first compound 0.003162 µM)	relative viability ([2]; first compound 0.01 µM)	relative viability ([2]; first compound 0.03162 µM)	relative viability ([2]; first compound 0.1 µM)	relative viability ([3]; first compound 0.01 µM)	relative viability ([3]; first compound 0.03162 µM)	relative viability ([3]; first compound 0.1 µM)	relative viability ([3]; first compound 0.3162 µM)	relative viability ([3]; first compound 1 µM)	relative viability ([4]; first compound 0.01 µM)	relative viability ([4]; first compound 0.03162 µM)	relative viability ([4]; first compound 0.1 µM)	relative viability ([4]; first compound 1 µM)	relative viability ([1]; first compound 0.3162 µM)	relative viability ([4]; first compound 0.3162 µM)
HOP-62	0.857	0.488	1.03	0.379	0.99	1.14	0.952	1.05	0.742	1.08	1.12	1.13	0.636	0.823	0.356	0.336	0.335	0.344		
LC-2-ad	1	1.1	1.02	0.636	0.842	0.845	0.971	0.556	0.184	0.368	0.406	0.486	0.339	0.368	0.48	0.523	0.387	0.41	0.664	0.285
LCLC-97TM1	0.316	0.488	0.578	0.18	0.205	0.152	0.175	0.262	0.169	0.39	0.396	0.552	0.264	0.484	0.193	0.29	0.174	0.257	0.236	0.159
LOU-NH91	0.436	0.504	0.581	0.478	0.875	0.908	0.887	0.695	0.677	0.786	0.651	0.707	0.686	0.678	0.705	0.642	0.708	0.594	0.429	0.531
LU99A	1.15	1.04	1.19	0.693	0.573	0.587	0.509	0.336	0.167	0.975	0.892	0.749	0.602	0.691	0.284	0.27	0.281	0.234	0.34	0.264
LXF-289	0.95	0.96	0.994	0.977	0.914	0.987	1.09	0.936	0.542	0.951	0.932	0.929	0.783	0.939	0.184	0.193	0.196	0.148	0.743	
NCI-H23	0.96	1.17	1.06	0.589	0.568	0.559	0.707	0.618	0.28	0.811	0.854	0.761	0.581	0.652	0.365	0.485	0.372	0.331	0.681	0.437
NCI-H322M	1.24	1.12	1.44	1.19	0.966	0.945	1.01	0.569	0.921	1.3	1.4	1.25	1.23	1.27	0.44	0.455	0.568	0.463	0.922	0.399
NCI-H441	0.398	0.428	0.455	0.413	0.465	0.771	0.346	0.163	0.173	0.803	0.795	1.12	0.397	0.439	0.612	1.08	0.671	0.404	0.586	0.509
NCI-H460	1.07	1.07	1.14	1.07	1.02	0.922	1.09	0.268	0.0336	1.08	0.97	1.25	1.01	1.12	0.476	0.381	0.508	0.367	0.92	0.328
NCI-H520	0.666	0.331	0.754	0.62	1.13	0.957	1.08	0.245	0.232	1.15	0.685	1.1		0.893	0.426	0.39	0.494	0.408		
NCI-H596	1.12	0.996	0.974	1.06	1.29	0.988	1.17	1.06	0.551	0.835	1.01	0.938	0.805	0.931	0.889	0.948	0.822	0.812	0.872	0.724
NCI-H647	1.03	1.12	1.07	0.811	1.2	1.26	0.949	0.607	0.144	1.24	1.12	1.18		1.05	0.342	0.262	0.319	0.217		
NCI-H727	0.86	0.856	0.948	0.501		0.303	0.235	0.244	0.223	0.406	0.539	0.376	0.19	0.184	0.643	0.67	0.689	0.523	0.392	0.623
NCI-H838	0.809	0.898	0.755	0.385	1.09	1.17	1.29	0.92	0.256	1.14	1.12	1.21	0.875	0.986	0.277	0.209	0.295	0.221	0.153	
NCI-H1355	1.19	1.25	1.18	0.79	0.82	0.794	0.893	0.795	0.561	0.888	0.868	0.881	0.729	0.659	0.584	0.576	0.475	0.428	0.748	0.458
